The subject of test [1] is H929 multiple myeloma cell line. The experiment in a line: Anti-proliferation assay (ATPLite, 72 h). The class given is cell-based, human. Also on record: key: S = lnfX·lnfY·ΣIdata(Idata−ILoewe), volume over Loewe additivity. The conditions noted are these: for synergy (score), PDEi × HE-NECA: 6×6 cross of PDE inhibitor or PDE inhibitor mixture with HE-NECA. The gist of the method: (§1)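 Cells treated 72 h with compounds in 2- or 3-fold serial dilutions (12 concentrations for single agents; 6×6 matrix for combinations); INA-6 medium supplemented with 10 ng/ml IL-6. Viability by ATPLite luminescence; % inhibition vs untreated wells, curves fitted, combinations assessed by Loewe additivity and Synergy Score.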
In general terms: In ATP-based viability assays light output follows the ATP content of the culture.

Test [2] concerns RPMI-8226 multiple myeloma cell line. As to the kind of experiment: Anti-proliferation assay (ATPLite, 72 h). It is filed as cell-based, human. Also on record: key: S = lnfX·lnfY·ΣIdata(Idata−ILoewe), volume over Loewe additivity. The gist of the method: as §1
Test [3] deals with human multiple myeloma cells (MM.1S). The experiment in a line: Anti-proliferation assay (ATPLite, 72 h). The conditions noted are these: for synergy (score), PDEi × HE-NECA: 6×6 cross of PDE inhibitor or PDE inhibitor mixture with HE-NECA. Details: key to synergy score / synergy (score), PDEi × HE-NECA: S = lnfX·lnfY·ΣIdata(Idata−ILoewe), volume over Loewe additivity. It is filed as cell-based. The gist of the method: as §1

Test [4] relates to human multiple myeloma cells (MM.1R). As to the kind of experiment: Anti-proliferation assay (ATPLite, 72 h). The class given is cell-based. Details: key: S = lnfX·lnfY·ΣIdata(Idata−ILoewe), volume over Loewe additivity. As for the experimental part:
ANBL6 and INA-6 culture media was also supplemented with 10 ng/ml IL-6. […] MM.1S, MM.1R, OCI-ly10, Karpas 422, and SU-DHL6 cells were provided by the Dana Farber Cancer Institute. H929, RPMI-8226, GA-10, and Farage cells were from ATCC (Cat #'s CCL-155, CRL-9068, CRL-2392 and CRL-2630 respectively). MOLP-8, EJM, KSM-12-PE, and OPM2 were from DSMZ. The ANBL6 and INA-6 cell lines were provided by the M. D. Anderson Cancer Research Center. Compounds were prepared in DMSO at 1000× the highest desired concentration. Master plates were generated consisting of serially diluted compounds in 2- or 3-fold dilutions in 384-well format. For single agent dose response curves, the master plates consisted of 9 individual compounds at 12 concentrations in 2- or 3-fold dilutions. For combination matrices, master plates consisted of individual compounds at 6 or 9 concentrations at 2- or 3-fold dilutions. […] To obtain combination data, two master plates were diluted into the assay plates. […] Thirty microliters of ATPLite (Perkin Elmer) at room temperature was then added to each well. […] Measurements were taken at the top of the well using a luminescence aperture and a read time of 0.1 seconds per well. The percent inhibition (% I) for each well was calculated using the following formula: % I=[(avg. untreated wells-treated well)/(avg. untreated wells)]×100. […] Negative inhibition values result from local variations in treated wells as compared to untreated wells. […] The uncertainty of each fitted parameter was estimated from the range over which the change in reduced chi-squared was less than one, or less than minimum reduced chi-squared if that minimum exceeded one, to allow for underestimated σI errors. Single agent curve data were used to define a dilution series for each compound to be used for combination screening in a 6×6 matrix format. […] The Loewe additivity model was used to quantify combination effects. […] A “Synergy Score” was also used, where the Synergy Score S=log fX log fY ΣIdata(Idata-ILoewe), summed over all non-single-agent concentration pairs, and where log fX,Y is the natural logarithm of the dilution factors used for each single agent. This effectively calculates a volume between the measured and Loewe additive response surfaces, weighted towards high inhibition and corrected for varying dilution factors. An uncertainty σS was calculated for each synergy score, based on the measured errors for the Idata values and standard error propagation.

In test [5] the test system is phosphodiesterase (PDE) types. The conditions noted are these: PDE type(s) in brackets after the name; cited from earlier work.
Where [6] appears, read: PDE inhibitor crossed with (S) ENBA, H929.
Setting [7] is: PDE inhibitor crossed with ADAC, H929.
Setting [8] is: PDE inhibitor crossed with Chloro-IB-MECA, H929.
Where [9] appears, read: PDE inhibitor crossed with HE-NECA, H929.
Where [10] appears, read: in combination with adenosine receptor agonist CGS-21680, H929.
The mark [11] stands for this setting: in combination with adenosine receptor agonist HE-NECA, H929.
The mark [12] stands for this setting: in combination with adenosine receptor agonist regadenoson, H929.
Where [13] appears, read: in combination with adenosine receptor agonist CGS-21680, RPMI 8226.
[14] abbreviates: in combination with adenosine receptor agonist HE-NECA, RPMI-8226.
The mark [15] stands for this setting: in combination with adenosine receptor agonist regadenoson, RPMI 8226.
Setting [16] is: PDE inhibitor crossed with (S) ENBA, MM.1S.
Setting [17] is: PDE inhibitor crossed with ADAC, MM.1S.
Where [18] appears, read: PDE inhibitor crossed with Chloro-IB-MECA, MM.1S.
[19] abbreviates: PDE inhibitor crossed with HE-NECA, MM.1S.
Setting [20] is: in combination with adenosine receptor agonist CGS-21680, MM.1S.
[21] abbreviates: in combination with adenosine receptor agonist HE-NECA, MM.1S.
Setting [22] is: in combination with adenosine receptor agonist regadenoson, MM.1S.
Where [23] appears, read: in combination with adenosine receptor agonist CGS-21680, MM.1R.
Setting [24] is: in combination with adenosine receptor agonist regadenoson, MM.1R.

The term inhibition denotes the change of the read-out against control, counted positive when it falls.

Molecules are shown by their SMILES.

Consider `O=C1CCc2cc(OCCCCc3nnnn3C3CCCCC3)ccc2N1` [Cilostazol, 6-[4-(1-cyclohexyl-1H-tetrazol-5-yl)butoxy]-3,4-dihydro-2(1H)-quinolinone], for which the synergy score is recorded as 0.4 in test [1] (setting [6]); 0.36 in test [1] (setting [7]); 0.46 in test [1] (setting [8]); 1.21 in test [1] (setting [9]); 1.12 in test [1] (setting [10]); 0.6849 in test [1] (setting [11]). Further, the synergy score in test [1] (setting [12]) stood at 1.34; in test [2] (setting [13]), 0.37; in test [2] (setting [14]) it was 0.2486; in test [2] (setting [15]), 0.12; in test [3] (setting [16]), 1.73; in test [3] (setting [17]), 0.89. Moreover, the synergy score in test [3] (setting [18]) stood at 0.75; in test [3] (setting [19]), 3.50; in test [3] (setting [20]) it was 4.09; in test [3] (setting [21]) it was 1.849; in test [3] (setting [22]), 1.85; in test [4] (setting [23]), 1.57. Also, the synergy score in test [4] (setting [24]) was 0.76. For the same compound, the “PDE inhibitors (specificity)” value in test [5] is “Cilostazol (3)”.

As to `COc1ccc(C2CNC(=O)C2)cc1OC1CCCC1` (stereo not drawn) [Rolipram, 4-(3-cyclopentyloxy-4-methoxyphenyl)-2-pyrrolidone], the synergy score in test [1] (setting [6]) came out at 0.46; in test [1] (setting [7]) it was 1.11; in test [1] (setting [8]), 0.74; in test [1] (setting [9]), 1.09; in test [1] (in combination with adenosine receptor agonist ADAC, H929), 1.114; in test [1] (setting [11]) it was 1.089. Also, the synergy score is reported as 0.4277 in test [2] (in combination with adenosine receptor agonist ADAC, RPMI-8226); 0.2845 in test [2] (setting [14]); 0.73 in test [3] (setting [16]); 1.15 in test [3] (setting [17]); 1.11 in test [3] (setting [18]); 1.08 in test [3] (setting [19]). Also, the synergy score in test [3] (in combination with adenosine receptor agonist ADAC, MM.1S) is on record as 1.147; in test [3] (setting [21]) it was 1.076; in test [4] (in combination with adenosine receptor agonist ADAC, MM.1R) it was 4.105. For the same compound, the “PDE inhibitors (specificity)” value in test [5] is “Rolipram (4)”.

Turning to `COc1ccc(Cc2nn3c([C@@H](CCCc4ccccc4)[C@@H](C)O)nc(C)c3c(=O)[nH]2)cc1OC` [BAY 60-7550, 2-(3,4-dimethoxybenzyl)-7-[(1R)-1-[(1R)-1-hydroxyethyl]-4-phenylbutyl]-5-methylimidazo[5,1-f][1,2,4]triazin-4(3H)-one], the results for the “synergy (score), PDEi × HE-NECA” value in test [1] (H929) and in test [3] (MM.1S) were 1.68 and 1.64, respectively. Also, the synergy score in test [1] (setting [6]) came out at 1.07; in test [1] (setting [7]), 0.55; in test [1] (setting [8]), 0.74; in test [1] (setting [9]), 3.71; in test [1] (setting [10]), 3.86; in test [1] (setting [11]), 1.933. The synergy score in test [1] (setting [12]) was 1.89; in test [2] (setting [13]), 0.76; in test [2] (setting [14]) it was 0.7784; in test [2] (setting [15]) it was 0.98; in test [3] (setting [16]), 2.84; in test [3] (setting [17]) it was 0.85. Also, the synergy score in test [3] (setting [18]) stood at 0.86; in test [3] (setting [19]) it was 3.8; in test [3] (setting [20]) it was 3.85; in test [3] (setting [21]) it was 2.364; in test [3] (setting [22]), 0.91; in test [4] (setting [23]) it was 4.59. In addition, the synergy score in test [4] (setting [24]) stood at 3.07. The inhibition at 0.7375 µM in test [3] (Homo sapiens, MM1.S, BAY 60-7550 0.7375 μM, HE-NECA conc. (nM), read-out: Percent inhibition of ATP in MM.1S cells) is -9.4%. The inhibition at 1.475 µM in test [3] (Homo sapiens, MM1.S, BAY 60-7550 1.475 μM, HE-NECA conc. (nM), read-out: Percent inhibition of ATP in MM.1S cells) is -3.6%. For the same compound, the inhibition at 2.95 µM in test [3] (Homo sapiens, MM1.S, BAY 60-7550 2.95 μM, HE-NECA conc. (nM), read-out: Percent inhibition of ATP in MM.1S cells) amounted to 4%. Besides, the inhibition at 5.9 µM in test [3] (Homo sapiens, MM1.S, BAY 60-7550 5.9 μM, HE-NECA conc. (nM), read-out: Percent inhibition of ATP in MM.1S cells) amounted to 6%. The inhibition at 11.8 µM in test [3] (Homo sapiens, MM1.S, BAY 60-7550 11.8 μM, HE-NECA conc. (nM), read-out: Percent inhibition of ATP in MM.1S cells) is 13%. Further, in test [5], the “PDE inhibitors (specificity)” value is listed as “BAY 60-7550 (2)”.

As for `CN(C(=O)CCCOc1ccc2[nH]c(=O)ccc2c1)C1CCCCC1` [Cilostamide, N-cyclohexyl-4-((1,2-dihydro-2-oxo-6-quinolinyl)oxy)-N-methyl-butanamide], the figures for the “synergy (score), PDEi × HE-NECA” value in test [1] (H929) and in test [3] (MM.1S) were 0.56 and 1.02, respectively. Moreover, the synergy score in test [1] (setting [6]) was 1.17; in test [1] (setting [8]), 0.65; in test [1] (setting [9]) it was 0.28; in test [1] (setting [11]), 1.67; in test [2] (setting [14]), 0.2381; in test [3] (setting [18]) it was 1.1. In addition, the synergy score was determined as 0.49 in test [3] (setting [19]); 1.637 in test [3] (setting [21]); 1.692 in test [4] (in combination with adenosine receptor agonist HE-NECA, MM.1R). In test [5], the “PDE inhibitors (specificity)” value is “Cilostamide (3)”.

For `Cc1ccc([N+](=O)[O-])cc1S(=O)(=O)N(C)C` [BRL-50481, 3-(N,N-dimethylsulfonamido)-4-methyl-nitrobenzene], the synergy score worked out at 0.26 in test [1] (setting [6]); 0.34 in test [1] (setting [8]); 0.23 in test [1] (setting [9]); 0.34 in test [1] (setting [10]); 0.193 in test [1] (setting [11]); 0.19 in test [1] (setting [12]). In addition, the synergy score in test [2] (setting [13]) is given as 0.19; in test [2] (setting [14]), 0.147; in test [2] (setting [15]) it was 0.39; in test [3] (setting [16]) it was 1.22; in test [3] (setting [18]) it was 1.47; in test [3] (setting [19]) it was 1.41. The synergy score in test [3] (setting [20]) is reported as 1.78; in test [3] (setting [21]) it was 1.38; in test [3] (setting [22]) it was 0.82; in test [4] (setting [23]), 1.22; in test [4] (setting [24]), 1.09. Further, the “PDE inhibitors (specificity)” value in test [5] was “BRL-50481(7)”.
